Here are results for three compounds from BindingDB's records for doi:10.1016/0014-2999(93)90076-T (University of North Carolina, 1993).

The experiment addresses T1, D1 dopamine receptor (Macaca fascicularis, UniProt Q5I6B7).
T1 sequence (Q5I6B7 whole entry): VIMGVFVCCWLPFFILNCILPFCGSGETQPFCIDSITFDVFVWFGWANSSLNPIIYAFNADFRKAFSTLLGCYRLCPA
In turn, `Oc1cc2c(cc1O)[C@@H](c1ccccc1)CNCC2` had a Ki of 0.106 µM.

Compound `Oc1cc2c(cc1O)[C@@H]1c3ccccc3CN[C@@H]1CC2` [(+/-)-trans-10,11-dihydroxy-5,6,6a,7,8,12b-hexahydrobenzo[a]phenanthridine] showed a Ki of 0.0202 µM.

Take `CN1CCc2cc(Cl)c(O)cc2[C@@H](c2ccccc2)C1` [SCH 23390,R(+)]: the inhibitory constant (Ki) worked out at 0.0013 µM.

Broadly, the Ki is the equilibrium dissociation constant of an inhibitor or competing ligand from its target.
